# Measurements published in patent US6723830B2, “Short peptides which selectively modulate the activity of protein kinases” (Children's Medical Center Corporation, priority 1998, dated 2004).
# * marks the point of attachment. Myristoyl = CCCCCCCCCCCCCC(=O)*
# Columns and labels:
# [1] = Appetite suppression: food intake and body weight in mice; format: in vivo; details: C57BL mice
# Protocol: Male CB6F1 or C57BL mice (Harlan), about 2-4 months old, were fed a pelleted rodent maintenance diet (Koffolk, Tel Aviv, Israel, 19520). The food containers for each group were weighed daily and the average food consumption was calculated per mouse per day.
# During the experimental period, the mice were injected intraperitoneally once a day for two consecutive days, 4 mg/mouse, with K085D102 (a Jak2-derived peptide from the αD region) solubilized in 10% DMSO in PBS+0.1% BSA in a volume of 0.2 ml. The control groups were injected with 0.2 ml of the vehicle only.
# FIGS. 4 and 5 illustrate the results obtained with CB6F1 mice while Table II summarizes the results obtained with C57BL mice.
# [2] = system: B16 melanoma cells; assay: Induction of melanogenesis in B16 melanoma cells, observed by eye; format: cell-based, mouse; details: 5 days incubation; increase in black pigment seen by eye; FIG. 7
# Protocol: B16 melanoma cells (a mouse tumor cell line) were cultured in a 24-well plate, 10^5 cells/well, in the presence of various concentrations of K085D102, a Jak2-derived peptide from the αD region. After 5 days incubation in DMEM+10% fetal calf serum under standard conditions, the plate was observed by eye for melanogenesis. Melanogenesis induction was visualized by an increase in the amount of the black pigment in the well. The results are illustrated in FIG. 7 and clearly show a dose response down to a concentration as low as 0.15 μM of the Jak2 peptide of the αD region present in the well.
# [3] = system: Human endothelial cells (HEC cells); assay: Proliferation of human endothelial cells (methylene blue cell count); format: cell-based; details: concentration at which significant inhibition of cell proliferation was observed; 72-80 hours incubation
# Protocol: (§1) Human endothelial cells (referred to herein as “HEC cells”) are the cell line described by Schweitzer et al., Laboratory Investigation 76(1):25 (1997). Human prostate cancer cells (PC3) were obtained by the procedures disclosed in Arbiser et al., Proc. Natl. Acad. Sci. 94:861 (1997), the teachings of which are incorporated herein by reference.
# (§2) 96 well, flat bottom, tissue culture microtiter plates were pre-coated with gelatin (Difco) immediately prior to cell plating by adding 0.100 ml/well of freshly filtered 1% gelatin in glass double distilled water (DDW). The wells were incubated for about 1 hour at 37° C., and then the excess solution was removed by aspiration.
# (§3) Culture medium was prepared from DMEM, penicillin/streptomycin/glutamine (penicillin—100 U/ml; streptomycin—100 μμg/mL; and glutamine—2 mM) and 10% endotoxin free bovine calf serum (Hyclone). A suspension of the cell type being tested at 25×10^3 cells/ml was prepared in the above described culture medium and distributed 0.160 ml/well (about 4000 endothelial cells/well).
# (§4) A series of αD peptide stock solutions was prepared by diluting a 10 mM solution of the αD peptide in 100% DMSO with phosphate buffered saline (PBS) containing 0.1% BSA. […]
# (§5) The wells were washed one time with borate buffer (0.1 M, pH 8.5). […] After extracting overnight, the O.D. was read at 630 nm to determine the number of cells per well. […]
# [4] = system: Human prostate cancer cells (PC3); assay: Proliferation of human prostate cancer cells PC3 (methylene blue cell count); format: cell-based; details: concentration at which significant inhibition of cell proliferation was observed; 72-80 hours incubation
# Protocol: as §1, §2, §3, §4, §5
# [5] = system: CD4+ T cells; assay: Th1/Th2 bioassay: IL-4 and IFNγ secretion by ELISA; format: cell-based, Balb/c mice; details: CD4+ T cells incubated 5 days with 0.4, 2 or 10 μM peptide; 24 hour re-stimulation; FIG. 6
# Protocol: 0.5×10^6 small resting CD4+ T cells were isolated from lymph nodes of 8 week-old Balb/c mice. These CD4+ T cells were incubated for 5 days in 2 ml culture medium in 24 well plates coated with anti-CD3 and anti-CD28 antibodies: (5 μg/ml and 2 μg/ml, respectively). 0.4, 2 or 10 μM Jak-derived peptides, initially in 10 μl DMSO, were present in the medium during the 5 day activation period. Control wells contained 10 μl of DMSO (the solvent of the peptide).
# At the end of the 5 day stimulation period, the medium was replaced with fresh medium containing 10 u/ml IL-2 and the cells were removed from the antibody-coated wells to uncoated wells for a 3 day “rest” and expansion period. Under these stimulating and rest conditions, the differentiation process led to the acquisition of Th2 phenotype (high IL-4 and low IFNγ production upon secondary challenge).
# At the end of the rest period, the cells were removed, washed and counted. 0.5×10^6 cells were re-stimulated in 1 ml of culture medium by incubation for 24 hours on anti-CD3-+anti-CD28-coated 24 well plates. At the end of the 24 hour re-stimulation period, the supernatant was removed and the level of secreted IL-4 and IFNγ was determined by ELISA. The results were expressed as u/ml or pg/ml of IL-4 and IFNγ respectively, which were secreted into the culture medium by 0.5×10^6 cells during the re-stimulation period.
# [6] = system: fresh adipocytes; assay: Glucose uptake (3H-deoxy glucose) by adipose tissue cells; format: cell-based, rats; details: 10 μM peptide
# Protocol: To 3 ml of buffer with 10 mg collagenase, 3 g epididymal fat pad (from 2-3 male rats) was introduced. The fat was cut up with scissors. The pieces of fat were swirled and shaken in a 37° C. water bath set at 100-150 repetitions/minute for approximately 1 hour with swirling every 15 minutes while digesting and every 5 minutes towards the end. About 6 ml of buffer was added to the vial.
# A 250μ nylon mesh over the top was secured with a rubber band and the contents of the container were gently squeezed into a 50 ml plastic tube. The total volume for each wash was 15 ml.
# The tube was centrifuged. The adipose cells floated to the top of the liquid. The buffer was removed using a 35 ml metal-tipped syringe with a needle. Buffer was added to 15 ml and the clumps of cells were gently broken up by mixing up and down in the syringe. This process was repeated for a total of 4 centrifugations at 1000 with the last centrifugation at 2000 rpm. At this point, any fat was removed from the top of the cells.
# Buffer and dilute cell suspension with buffer were removed to cytocrit of 5-10%. The cells were kept at 37° C. for 1 hour.
# 500 μl buffer was added with or without additives (insulin 10-10,000 μU/ml, peptides 0.1-10 μM) to 10 ml plastic tubes.
# 500 μl aliquots of the cell suspension were added to the tubes.
# After incubation for 30 minutes at 37° C. in a shaking water bath (approximately 300 strokes/minute), 200 μl of buffer containing 3H—Deoxy Glucose (approx. 1200 cpm/μl) was added to each tube.
# After 30 minutes incubation with 3H-DOG at 37° C., 200 μl aliquots were transferred to microcentrifuge tubes containing 200 μl Dinonyl phthalate. Cells were rapidly separated from the aqueous buffer by centrifugation at 10,000 g for 30-60 sec. Cells separated in the top layer from the aqueous buffer by Dinonyl phthalate.
# Cell associated radioactivity was counted in a liquid scintillation counter.
# Glucose-uptake was measured in fresh adipocytes, incubated with or without insulin (10 μU) as described above, in the absence (control) or the presence of 10 μM of peptide K094D101 (derived from the αD region of IRK).
# [7] = 4 mg/mouse intraperitoneally once a day for two consecutive days, treatment day 1
# [8] = 4 mg/mouse intraperitoneally once a day for two consecutive days, treatment day 2
# [9] = recovery after two days of treatment
substance,measurement,setting,value
"K085D102: a Jak2-derived peptide from the αD region, SEQ ID NO:143 (GLRDYLQKHKERI), N-myristylated, C-amidated (Myristoyl-GLRDYLQKHKERI-NH2; SMILES CCCCCCCCCCCCCC(=O)NCC(=O)N[C@@H](CC(C)C)C(=O)N[C@@H](CCCNC(=N)N)C(=O)N[C@@H](CC(=O)O)C(=O)N[C@@H](Cc1ccc(O)cc1)C(=O)N[C@@H](CC(C)C)C(=O)N[C@@H](CCC(N)=O)C(=O)N[C@@H](CCCCN)C(=O)N[C@@H](Cc1c[nH]cn1)C(=O)N[C@@H](CCCCN)C(=O)N[C@@H](CCC(=O)O)C(=O)N[C@@H](CCCNC(=N)N)C(=O)N[C@H](C(N)=O)[C@@H](C)CC)","% change in body wt. (relative to day 0), treatment day 1",[1]; [7],94%
same,"Food Intake (g/mouse/day), treatment day 1",[1]; [7],0.24 g/mouse/day
same,"% change in body wt. (relative to day 0), treatment day 2",[1]; [8],95%
same,"Food Intake (g/mouse/day), treatment day 2",[1]; [8],1.43 g/mouse/day
same,"Food Intake (g/mouse/day), baseline",[1]; baseline before treatment,3.16 g/mouse/day
same,"% change in body wt. (relative to day 0), day 0",[1]; day 0 (reference),100%
same,"% change in body wt. (relative to day 0), recovery",[1]; [9],97%
same,"Food Intake (g/mouse/day), recovery",[1]; [9],3.62 g/mouse/day
same,Melanogenesis induction: lowest concentration showing dose response,[2],0.15 µM
"K086D101: Jak3 αD region peptide, SEQ ID NO:145 (GMEYLPSGSLRDFLQRHRAL), N-myristylated, C-amidated (Myristoyl-GMEYLPSGSLRDFLQRHRAL-NH2; SMILES CCCCCCCCCCCCCC(=O)NCC(=O)N[C@@H](CCSC)C(=O)N[C@@H](CCC(=O)O)C(=O)N[C@@H](Cc1ccc(O)cc1)C(=O)N[C@@H](CC(C)C)C(=O)N1CCC[C@H]1C(=O)N[C@@H](CO)C(=O)NCC(=O)N[C@@H](CO)C(=O)N[C@@H](CC(C)C)C(=O)N[C@@H](CCCNC(=N)N)C(=O)N[C@@H](CC(=O)O)C(=O)N[C@@H](Cc1ccccc1)C(=O)N[C@@H](CC(C)C)C(=O)N[C@@H](CCC(N)=O)C(=O)N[C@@H](CCCNC(=N)N)C(=O)N[C@@H](Cc1c[nH]cn1)C(=O)N[C@@H](CCCNC(=N)N)C(=O)N[C@@H](C)C(=O)N[C@@H](CC(C)C)C(N)=O)",S.I.* (μM) for HEC Cells,[3],0.6 µM
same,S.I.* (μM) for PC3 Cells,[4],0.6 µM
"K086D102: Jak3 peptide derived from the αD region, SEQ ID NO:146 (GMEYLPSGSLRDFLQRHRARL), N-myristylated, C-amidated (Myristoyl-GMEYLPSGSLRDFLQRHRARL-NH2; SMILES CCCCCCCCCCCCCC(=O)NCC(=O)N[C@@H](CCSC)C(=O)N[C@@H](CCC(=O)O)C(=O)N[C@@H](Cc1ccc(O)cc1)C(=O)N[C@@H](CC(C)C)C(=O)N1CCC[C@H]1C(=O)N[C@@H](CO)C(=O)NCC(=O)N[C@@H](CO)C(=O)N[C@@H](CC(C)C)C(=O)N[C@@H](CCCNC(=N)N)C(=O)N[C@@H](CC(=O)O)C(=O)N[C@@H](Cc1ccccc1)C(=O)N[C@@H](CC(C)C)C(=O)N[C@@H](CCC(N)=O)C(=O)N[C@@H](CCCNC(=N)N)C(=O)N[C@@H](Cc1c[nH]cn1)C(=O)N[C@@H](CCCNC(=N)N)C(=O)N[C@@H](C)C(=O)N[C@@H](CCCNC(=N)N)C(=O)N[C@@H](CC(C)C)C(N)=O)",IFNγ production (Th1 conversion),[5],increase
same,IL-4 production (Th1 conversion),[5],decrease
"K094D101: peptide derived from the αD region of IRK; SEQ ID NO:137 by list order, possibly SEQ ID NO:136 (myristylated) (Myristoyl-AQNNPGRPPPTL-NH2; SMILES CCCCCCCCCCCCCC(=O)N[C@@H](C)C(=O)N[C@@H](CCC(N)=O)C(=O)N[C@@H](CC(N)=O)C(=O)N[C@@H](CC(N)=O)C(=O)N1CCC[C@H]1C(=O)NCC(=O)N[C@@H](CCCNC(=N)N)C(=O)N1CCC[C@H]1C(=O)N1CCC[C@H]1C(=O)N1CCC[C@H]1C(=O)N[C@H](C(=O)N[C@@H](CC(C)C)C(N)=O)[C@@H](C)O)","Glucose uptake, % of Control, +Insulin 10 μU/ml",[6]; insulin 10 μU/ml,67&
same,"Glucose-Update: Mean DPM ± SEM of Quadruplicates, +Insulin 10 μU/ml",[6]; insulin 10 μU/ml,"1,210 ± 110 DPM"
same,"Glucose uptake, % of Control, −Insulin",[6]; without insulin,67%
same,"Glucose-Update: Mean DPM ± SEM of Quadruplicates, −Insulin",[6]; without insulin,775 ± 72 DPM
